Experimental data published in US20220241223A1, “USE OF DISULFIRAM OR ITS DERIVATIVES FOR THE TREATMENT OF MITOCHONDRIAL DISEASES OR DYSFUNCTION” (Universite D'angers, priority 2019, published 2022).

Experiments:
[1] = tested on: A29G, shy1 and coa6 yeast mutant strains; assay: Yeast respiration, O2 consumption rate (Hansatech electrode); assay type: cell-based, Saccharomyces cerevisiae; settings: FIG. 2; 200 nM for A29G, 300 nM for shy1 and coa6 mutants; with or without CCCP
From the text: FIG. 2: Effect of DSF on O2 consumption rate (VO2, nmol O2 10^7 cell/min) of various yeast mutant strains, with or without CCCP. The data are the means±SEM of at least three independent experiments. The significance of variations among samples and controls was estimated using Anova multifactorial test: Tukey; (* P value<0.05; ** P<0.01; *** P<0.001; **** P<0.0001)).
The respiratory intensity corresponds to the amount of oxygen consumed relative to time and to the quantity of cells. It reflects the oxidative metabolism of cells. Oxygen consumption was measured using a Hansatech electrode. Cells were grown for 7-8 generations at 28° C. for 24 or 48 h in YPE medium (1% Yeast Extract, 0.5% Bacto Peptone, 2% ethanol) or galactose medium (1% Yeast Extract, 0.5% Bacto Peptone, 2% galactose) supplemented with either DMSO or DSF (200 nM for A29G; 300 nM for shy1 and coati mutants). […] 02 consumption was recorded with or without CCCP (Carbonyl Cyanide m-Chloro-Phenyl hydrazine; an uncoupling agent that dissipates the proton gradient that is established during the normal activity of the respiratory chain. In the presence of CCCP, the maintenance of an electrical potential across the inner mitochondrial membrane is impossible and respiration becomes maximal. The 02 consumption rate was calculated based on the linear part of 02 consumption.

[2] = tested on: JCP239 NARP (T8993G) cybrid cell line; assay: NARP cybrid growth in glucose-deprived medium; assay type: cell-based, human; settings: FIG. 3, low concentrations (from 1 nM), 5 days
Procedure: FIG. 3: Effect of DSF on NARP cybrid cell lines (JCP239 NARP (T8993G)) grown in glucose deprived medium. DHLA (dihydrolipoic acid) was used as a positive control, as in previous studies (Couplan E et al. & Aiyar R S et al.). Various concentrations of DSF were tested as indicated. After 5 days of treatment by DSF, or DMSO (negative control), or DHLA (positive control), followed by a trypsin treatment, the number of living cells was determined using a Scepter Counter (Millipore). All cell counts were expressed relative to DMSO values set at 100%. This experiment has been repeated two times in triplicates and error bars represent the standard deviation. For each condition, the mean values of the resulting six points is indicated and compared to the negative control (DMSO-treated cells) using the Student's t-test (*P=0.0153; **P=0.0025; ***P<0.0001). […]

[3] = tested on: mitochondrial complex I respiration in MELAS neuronal cybrid cells; assay: Complex I linked respiration in permeabilized MELAS cybrid cells (Oroboros oxygraph); assay type: cell-based, human; settings: 48 h exposure, low glucose medium (0.5 g/l)
Procedure: FIG. 6: Effect of DSF on mitochondrial complex I respiration in MELAS neuronal cybrid cells after 48 h exposure in low glucose medium (0.5 g/l).
FIG. 7: Effect of DSF at 10 nM after 48 h exposure on mitochondrial complex I (left) and complex IV (right) respiration in permeabilized MELAS neuronal cybrid cells, in low glucose medium (0.5 g/l).
Cellular oxygen consumption was measured at 37° C. in MELAS cybrid cells treated vs untreated mutant cells on a high-resolution oxygraph (Oroboros), as described elsewhere (Desquiret-Dumas et al., 2012).
Briefly treated and untreated mutant cells were trypsinized and the pellet was resuspended in the respiratory buffer (KH2PO4 10 mM, mannitol 300 mM, KCl 10 mM, MgCl2 5 mM, pH 7.4) containing 15 μg/million cells of digitonin. Cells were incubated at room temperature during 2.5 minutes and the digitonin action was stopped by adding five volumes of the respiration buffer supplemented with 1 mg/ml of BSA. […] The oxygen consumption was measured in state II (5 mM malate+pyruvate), state III (5 mM malate+pyruvate+1.5 mM ADP+0.5 mM NAD or 5 mM succinate+10 μM rotenone+1.5 mM ADP+0.5 mM NAD), state IV (8 μg/ml oligomycin) and maximal cytochrome c oxidase capacity (4 mM ascorbate+0.2 mM TMPD). After oxygraphic measurement, […] of cell suspension was removed from the chamber and the protein concentration was measured using bicinchoninic acid.

[4] = tested on: neuronal MELAS cybrid cells; assay: Lactate production in MELAS cybrid cells; assay type: cell-based, human; settings: FIG. 8, MELAS cybrids
Procedure: FIG. 8: Determination of the maximal DSF concentration nontoxic for lactate production in neuronal MELAS cybrid cells. Range of DSF concentrations from 100 nM to 10 μM.
Lactate concentrations in the culture media were determined by spectrophotometry on a Hitachi-Roche apparatus following the recommendations of the manufacturer (Roche Diagnosis, Bale, Switzerland). Increased lactate concentration in supernatant of cell culture is witnessing glycolytic adaptation at the expense of mitochondrial function with reduced oxidative mitochondrial metabolism correlated with high concentrations and drug toxicity of DSF.

[5] = tested on: normal cells or intact mitochondria; settings: very high concentrations (above 25 μM); Gill, Mali, Kuroda, Hassinen; cited from earlier work
TNFα-induced cell death = settings: Zhao et al. 2000; cited from earlier work

## CCN(CC)C(=S)SSC(=S)N(CC)CC [DSF, 1-(diethylthiocarbamoyldisulfanyl)-N,N-diethyl-methanethioamide]
[1]
  effect on yeast respiration (O2 consumption rate): increases the yeast respiration
[2]
  effect on growth of NARP cybrids: significant positive effect
[3]; FIG. 6, various concentrations
  effect on complex I linked respiration: increases complex I linked respiration
[3]; FIG. 7, 10 nM, permeabilized cells
  effect on complex I linked respiration: increases mitochondrial complex I
[4]; also at 3 μM or 10 μM
  DSF concentration with impact on lactate production (drug toxicity): ≥ 1 µM
[4]; range 100 nM to 10 μM
  DSF concentration with no impact on lactate production: lower than 1 μM
[5]
  effect on mitochondrial function: affect mitochondrial function
TNFα-induced cell death
  effect on TNFα-induced cell death: inhibits TNFα-induced cell death
